For four compounds, IC50 results are on record in US10322131B2, “Hydroxyacid derivatives, a process for their preparation and pharmaceutical compositions containing them” (LES LABORATOIRES SERVIER, priority 2015, dated 2019).

One assay concerns H929 cells. Description: In vitro cytotoxicity (MTT) on H929 multiple myeloma tumour line. Type of assay: cell-based. Particulars: Microculture Tetrazolium Assay. How it is done: The cytotoxicity studies were carried out on the H929 multiple myeloma tumour line.
The cells are distributed onto microplates and exposed to the test compounds for 48 hours.
The cell viability is then quantified by a colorimetric assay, the Microculture Tetrazolium Assay (Cancer Res., 1987, 47, 939-942).

A further assay deals with Mcl-1 protein (Homo sapiens, UniProt Q07820). Description: Inhibition of Mcl-1 by the fluorescence polarisation technique. Type of assay: binding. As to conditions: fluorescence polarisation test; Fluorescein labelled ligand 1 nM, Mcl-1 protein 5 nM, ~2 hours at r.t.; read-out: IC50 (M) Mcl-1 FP. The gist of the method:
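Competitive FP displacement of fluorescein-labelled peptide ligand (1 nM final) from Mcl-1 (5 nM final) in HEPES 10 mM, 150 mM NaCl, 0.05% Tween 20, pH 7.4, 5% DMSO final. Read after ~2 h at r.t.; IC50 from 11-point 4-parameter logistic fit of % mP reduction.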

The mark [1] stands for this setting: Homo sapiens, NCI-H929, exposed 48 hours.

Mcl-1 protein, sequence (Q07820 whole entry): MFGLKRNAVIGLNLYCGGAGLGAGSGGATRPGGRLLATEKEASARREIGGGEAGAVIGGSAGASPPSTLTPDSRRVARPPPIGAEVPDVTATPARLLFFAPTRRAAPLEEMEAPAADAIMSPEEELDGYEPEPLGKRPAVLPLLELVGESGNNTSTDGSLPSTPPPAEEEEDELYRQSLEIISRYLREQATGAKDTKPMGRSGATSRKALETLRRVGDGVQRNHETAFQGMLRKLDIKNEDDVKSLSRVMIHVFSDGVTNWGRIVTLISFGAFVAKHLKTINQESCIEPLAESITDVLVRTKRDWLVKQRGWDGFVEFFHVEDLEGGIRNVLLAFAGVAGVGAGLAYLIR

As to `COCCOCCOc1ccccc1-c1nccc(COc2ccccc2CC(Oc2ncnc3sc(-c4ccc(F)cc4)c(-c4ccc(OCCN5CCN(C)CC5)c(Cl)c4C)c23)C(=O)O)n1` [Example 6, (2R)-2-{[(5Sa)-5-{3-chloro-2-methyl-4-[2-(4-methylpiperazin-1-yl)ethoxy]phenyl}-6-(4-fluoropnhenyl)thieno[2,3-d]pyrimidin-4-yl]oxy}-3-{2-[(2-{2-[2-(2-methoxyethoxy)ethoxy]phenyl}pyrimidin-4-yl)methoxy]phenyl}propanoic acid], the results for the 50% inhibitory concentration (IC50) in the assay with H929 cells (setting [1]) and on Mcl-1 protein were 3.25 nM and 1.57e-08 M, respectively.

On to `Cc1c(-c2c(-c3ccc(F)cc3)sc3ncnc(OC(Cc4ccccc4OCc4ccnc(-c5cccc(COCCO)c5)n4)C(=O)O)c23)ccc(OCCN2CCN(C)CC2)c1Cl` [Example 12, (2R)-2-{[(5Sa)-5-{3-chloro-2-methyl-4-[2-(4-methylpiperazin-1-yl(ethoxy]phenyl}-6-(4-fluorophenyl)thieno[2,3-d]pyrimidin-4-yl]oxy}-3-{2-[(2-{3-[(2-hydroxyethoxy)methyl]phenyl}pyrimidin-4-yl)methoxy]phenyl}propanoic acid], for which the IC50 in the assay with H929 cells (setting [1]) is 3.82 nM; on Mcl-1 protein it was 4.25e-09 M.

Take `COCCOCCOc1cccc(-c2nccc(COc3ccccc3CC(Oc3ncnc4sc(-c5ccc(F)cc5)c(-c5ccc(OCCN6CCN(C)CC6)c(Cl)c5C)c34)C(=O)O)n2)c1` [Example 40, (2R)-2-{[(5Sa)-5-{3-chloro-2-methyl-4-[2-(4-methylpiperazin-1-yl)ethoxy]phenyl}-6-(4-fluorophenyl)thieno[2,3-d]pyrimidin-4-yl]oxy}-3-{2-[(2-{3-[2-(2-methoxyethoxy)ethoxy]phenyl}pyrimidin-4-yl)methoxy]phenyl}propanoic acid]: the values for the IC50 in the assay with H929 cells (setting [1]) and at Mcl-1 protein were 6.15 nM and 3.75e-09 M, respectively.

For `Cc1c(-c2c(-c3ccc(F)cc3)sc3ncnc(O[C@H](Cc4ccccc4OCc4ccnc(-c5ccccc5OC[C@@H](O)[C@@H](O)[C@H](O)[C@H](O)C(=O)O)n4)C(=O)O)c23)ccc(OCCN2CCN(C)CC2)c1Cl` [Example 21], the IC50 in the assay with H929 cells (exposed 48 hours) is over 150 nM; at Mcl-1 protein, 4.85e-09 M.
